Results taken from the CheMixHub ionic liquid set.
± gives the uncertainty stated by the source.

Assay: xn = mol fraction of the nth substance listed

CCCCCCCC[n+]1ccn(C)c1.F[P-](F)(F)(F)(F)F + O
101 kPa, x2 = 0.212
Conditions | electrical conductivity [S/m] | viscosity [mPa·s]
293.15 K | – | 500 ± 93
295.15 K | 0.12 ± 0.02 | –

CCCCCCCCn1cc[n+](C)c1.F[B-](F)(F)F + O
100 kPa
Conditions | viscosity [mPa·s]
298.15 K, x2 = 0.9487 | 5.25 ± 0.26
308 K, x1 = 0.5482 | 34.91 ± 0.76

CC(C)O + CS(=O)(=O)[O-].C[N+](C)(CCO)CCO
101 kPa, x2 = 0
Conditions | viscosity [mPa·s]
298.15 K | 2.08 ± 0.13
303.15 K | 1.79 ± 0.11
308.15 K | 1.546 ± 0.093
313.15 K | 1.343 ± 0.081
318.15 K | 1.189 ± 0.072
323.15 K | 1.056 ± 0.064

[Cl-].[Li+] + CCCC[n+]1ccn(C)c1.N#C[S-] + CN1CCCC1=O
298.15 K, 101 kPa
Conditions | viscosity [mPa·s]
x2 = 0, x1 = 0.03819 | 2.63 ± 0.035
x2 = 0, x1 = 0.07228 | 3.56 ± 0.046
x2 = 0, x1 = 0.1042 | 4.958 ± 0.064

CCCC[N+]1(C)CCCC1.O=S(=O)([N-]S(=O)(=O)C(F)(F)F)C(F)(F)F + CCOC(=O)OCC
100 kPa
Conditions | electrical conductivity [S/m] | viscosity [mPa·s]
293.15 K, x1 = 0.1001 | 0.343 ± 0.011 | 1.84 ± 0.06
293.15 K, x1 = 0.2 | 0.526 ± 0.016 | 3.84 ± 0.12
293.15 K, x1 = 0.4998 | 0.42 ± 0.013 | 18.14 ± 0.56
293.15 K, x1 = 0.8934 | 0.23 ± 0.007 | 72.5 ± 2.2
303.15 K, x1 = 0.2 | 0.648 ± 0.02 | 3.18 ± 0.1
303.15 K, x1 = 0.25 | 0.731 ± 0.022 | –
308.15 K, x1 = 0.4998 | 0.705 ± 0.021 | 11.73 ± 0.36
308.15 K, x1 = 0.8934 | 0.454 ± 0.014 | 38.8 ± 1.2
313.15 K, x1 = 0.1001 | 0.465 ± 0.015 | 1.22 ± 0.04
313.15 K, x1 = 0.25 | 0.9 ± 0.027 | –
323.15 K, x1 = 0.1001 | 0.539 ± 0.017 | 1 ± 0.03
323.15 K, x1 = 0.8006 | 0.793 ± 0.024 | 18.67 ± 0.57

CCCCCCCCn1cc[n+](C)c1.F[B-](F)(F)F + NC(N)=O + O
298.15 K, 100 kPa
Conditions | viscosity [mPa·s]
x2 = 0, x3 = 0.9487 | 5.25 ± 0.27
x2 = 0.008492, x3 = 0.9402 | 5.16 ± 0.26
x2 = 0.01695, x3 = 0.9318 | 5.13 ± 0.26
x2 = 0.03322, x3 = 0.9155 | 5.12 ± 0.26
x2 = 0.0408, x3 = 0.9079 | 5.13 ± 0.26

F[P-](F)(F)(F)(F)F.[Li+] + CCCC[n+]1ccn(C)c1.N#C[N-]C#N
electrical conductivity [S/m], 101 kPa
Conditions | x2 = 0.8823 | x2 = 0.8953 | x2 = 0.9172 | x2 = 0.9531 | x2 = 0.9799
288.15 K | – | 0.307 ± 0.031 | 0.39 ± 0.039 | 0.482 ± 0.049 | 0.585 ± 0.059
298.15 K | 0.488 ± 0.049 | 0.522 ± 0.053 | 0.633 ± 0.064 | 0.771 ± 0.078 | 0.909 ± 0.091
333.15 K | 1.63 ± 0.16 | 1.68 ± 0.17 | 1.97 ± 0.2 | 2.24 ± 0.22 | 2.58 ± 0.26

CCCC[n+]1ccn(C)c1.COP(=O)([O-])OC + O
101 kPa
Conditions | viscosity [mPa·s]
298.15 K, x2 = 0.398 | 251 ± 15
303.15 K, x2 = 0.201 | 291 ± 18
303.15 K, x2 = 0.601 | 81.6 ± 1.7
313.15 K, x2 = 0.799 | 15.81 ± 0.19
318.15 K, x2 = 0.398 | 78.8 ± 1.5
328.15 K, x2 = 0.398 | 49.68 ± 0.62

CCCC[n+]1ccn(C)c1.[Cl-] + O + CCCCCCCCCCCCCCCC[N+](C)(C)C.[Br-]
electrical conductivity [S/m], 100 kPa
Conditions | 298 K | 303 K | 308 K | 313 K | 318 K
x1 = 0.0001802, x3 = 8.8e-07 | 0.095 ± 0.06 | 0.094 ± 0.06 | 0.096 ± 0.06 | 0.101 ± 0.06 | 0.101 ± 0.06
x1 = 0.0001802, x3 = 1.79e-06 | 0.096 ± 0.06 | 0.095 ± 0.06 | 0.097 ± 0.06 | 0.101 ± 0.06 | 0.101 ± 0.06
x1 = 0.0001802, x3 = 2.67e-06 | 0.097 ± 0.06 | 0.095 ± 0.06 | 0.097 ± 0.06 | 0.102 ± 0.06 | 0.102 ± 0.06
x1 = 0.0001802, x3 = 3.56e-06 | 0.097 ± 0.06 | 0.096 ± 0.06 | 0.098 ± 0.06 | 0.102 ± 0.06 | 0.102 ± 0.06
x1 = 0.0001802, x3 = 4.42e-06 | 0.098 ± 0.06 | 0.096 ± 0.06 | 0.098 ± 0.06 | 0.103 ± 0.06 | 0.102 ± 0.06
x1 = 0.0001802, x3 = 5.31e-06 | 0.098 ± 0.06 | 0.096 ± 0.06 | 0.098 ± 0.06 | 0.103 ± 0.06 | 0.103 ± 0.06
x1 = 0.0001802, x3 = 6.17e-06 | 0.098 ± 0.06 | 0.097 ± 0.06 | 0.099 ± 0.06 | 0.104 ± 0.06 | 0.103 ± 0.06
x1 = 0.0001802, x3 = 7.02e-06 | 0.098 ± 0.06 | 0.097 ± 0.06 | 0.099 ± 0.06 | 0.104 ± 0.06 | 0.103 ± 0.06
x1 = 0.0001802, x3 = 7.87e-06 | 0.098 ± 0.06 | 0.097 ± 0.06 | 0.099 ± 0.06 | 0.104 ± 0.06 | 0.103 ± 0.06
x1 = 0.0001802, x3 = 8.72e-06 | 0.098 ± 0.06 | 0.097 ± 0.06 | 0.1 ± 0.06 | 0.104 ± 0.06 | 0.104 ± 0.06
x1 = 0.0001802, x3 = 9.57e-06 | 0.099 ± 0.06 | – | – | – | –
x1 = 0.0001802, x3 = 1.04e-05 | 0.099 ± 0.06 | 0.098 ± 0.06 | 0.1 ± 0.06 | 0.105 ± 0.06 | 0.104 ± 0.06
x1 = 0.0001802, x3 = 1.124e-05 | 0.099 ± 0.06 | – | – | – | –
x1 = 0.0001802, x3 = 1.206e-05 | 0.099 ± 0.06 | 0.098 ± 0.06 | 0.1 ± 0.06 | 0.105 ± 0.06 | 0.104 ± 0.06
x1 = 0.0001802, x3 = 1.289e-05 | 0.099 ± 0.06 | – | – | – | –
x1 = 0.0001802, x3 = 1.37e-05 | 0.099 ± 0.06 | 0.098 ± 0.06 | 0.1 ± 0.06 | 0.105 ± 0.06 | 0.104 ± 0.06
x1 = 0.0001802, x3 = 1.451e-05 | 0.099 ± 0.06 | – | – | – | –
x1 = 0.0001802, x3 = 1.532e-05 | 0.1 ± 0.06 | 0.099 ± 0.06 | 0.101 ± 0.06 | 0.105 ± 0.06 | 0.105 ± 0.06
x1 = 0.0001802, x3 = 1.612e-05 | 0.1 ± 0.06 | – | – | – | –
x1 = 0.0001802, x3 = 1.691e-05 | 0.1 ± 0.06 | 0.099 ± 0.06 | 0.101 ± 0.06 | 0.106 ± 0.06 | 0.105 ± 0.06
x1 = 0.0001802, x3 = 1.77e-05 | 0.1 ± 0.06 | – | – | – | –
x1 = 0.0001802, x3 = 1.848e-05 | 0.1 ± 0.06 | 0.099 ± 0.06 | 0.101 ± 0.06 | 0.106 ± 0.06 | 0.105 ± 0.06
x1 = 0.0001802, x3 = 1.928e-05 | 0.1 ± 0.06 | – | – | – | –
x1 = 0.0001802, x3 = 2.005e-05 | 0.1 ± 0.06 | 0.099 ± 0.06 | 0.101 ± 0.06 | 0.106 ± 0.06 | 0.105 ± 0.06
x1 = 0.0001802, x3 = 2.081e-05 | 0.1 ± 0.06 | – | – | – | –
x1 = 0.0001802, x3 = 2.159e-05 | 0.1 ± 0.06 | 0.1 ± 0.06 | 0.102 ± 0.06 | 0.106 ± 0.06 | 0.105 ± 0.06
x1 = 0.0001802, x3 = 2.234e-05 | 0.101 ± 0.06 | – | – | – | –
x1 = 0.0001802, x3 = 2.31e-05 | 0.101 ± 0.06 | 0.1 ± 0.06 | 0.102 ± 0.06 | 0.107 ± 0.06 | 0.106 ± 0.06
x1 = 0.0001802, x3 = 2.386e-05 | 0.101 ± 0.06 | – | – | – | –
x1 = 0.0001802, x3 = 2.46e-05 | 0.101 ± 0.06 | 0.1 ± 0.06 | 0.102 ± 0.06 | 0.107 ± 0.06 | 0.106 ± 0.06
x1 = 0.0001802, x3 = 2.534e-05 | 0.101 ± 0.06 | – | – | – | –
x1 = 0.0001802, x3 = 2.608e-05 | – | 0.1 ± 0.06 | 0.102 ± 0.06 | 0.107 ± 0.06 | 0.106 ± 0.06
x1 = 0.0001802, x3 = 2.754e-05 | – | 0.101 ± 0.06 | 0.103 ± 0.06 | 0.107 ± 0.06 | 0.107 ± 0.06
x1 = 0.0001802, x3 = 2.9e-05 | – | 0.101 ± 0.06 | 0.103 ± 0.06 | 0.108 ± 0.06 | 0.107 ± 0.06
x1 = 0.0001802, x3 = 3.043e-05 | – | 0.101 ± 0.06 | 0.103 ± 0.06 | 0.108 ± 0.06 | 0.107 ± 0.06
x1 = 0.0001802, x3 = 3.184e-05 | – | 0.101 ± 0.06 | 0.103 ± 0.06 | 0.108 ± 0.06 | 0.107 ± 0.06
x1 = 0.0001802, x3 = 3.324e-05 | – | 0.101 ± 0.06 | 0.103 ± 0.06 | 0.108 ± 0.06 | 0.107 ± 0.06
x1 = 0.0001802, x3 = 3.462e-05 | – | 0.101 ± 0.06 | 0.104 ± 0.06 | 0.109 ± 0.06 | 0.108 ± 0.06
x1 = 0.0001802, x3 = 3.599e-05 | – | 0.102 ± 0.06 | 0.104 ± 0.06 | 0.109 ± 0.06 | 0.108 ± 0.06
x1 = 0.0001802, x3 = 3.732e-05 | – | 0.102 ± 0.06 | 0.104 ± 0.06 | 0.109 ± 0.06 | 0.108 ± 0.06
x1 = 0.0001802, x3 = 3.866e-05 | – | 0.102 ± 0.06 | 0.104 ± 0.06 | 0.109 ± 0.06 | 0.108 ± 0.06
x1 = 0.0001802, x3 = 3.998e-05 | – | 0.102 ± 0.06 | 0.105 ± 0.06 | 0.11 ± 0.06 | 0.109 ± 0.06
